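1) Cells in 96-well plates. 2) Compound, 48 h, 5 concentrations. 3) Linear interpolation between surrounding doses. 4) Unreached endpoint = highest concentration. TGI: total growth inhibition.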

Among the test systems are HOP-18 NSCLC; SNB-78 CNS; DLD-1 colon; DMS 273 small cell lung; LXFL 529 NSCLC; M19-MEL melanoma; DMS 114 small cell lung; KM20L2 colon; RXF-631 renal.
Holding throughout (test): inhibition of tumour cell growth, NCI panel, 48 h

For the compound `COc1ccc(C=C(c2ccc(OCc3ccccc3)cc2)c2ccc(OCc3ccccc3)cc2)cc1`, the TGI with HOP-18 NSCLC, with SNB-78 CNS, in the experiment with DLD-1 colon, in the experiment on DMS 273 small cell lung, with LXFL 529 NSCLC and in the experiment on M19-MEL melanoma was over 100 µM each time. In addition, the TGI in the experiment with DMS 114 small cell lung, in the experiment with KM20L2 colon and in the experiment on RXF-631 renal was over 100 µM throughout.
As to `O=C1C2CN(Cc3ccccc3)CC1CN(CC1CC1)C2`, the TGI in the experiment with HOP-18 NSCLC, with DMS 273 small cell lung, in the experiment on LXFL 529 NSCLC, in the experiment with M19-MEL melanoma, with DMS 114 small cell lung and in the experiment with KM20L2 colon was over 100 µM throughout.
On to `CN1Cc2cc3c(cc2-c2ccccc21)OCO3`, for which the TGI with HOP-18 NSCLC, with SNB-78 CNS, with DLD-1 colon, in the experiment with DMS 273 small cell lung, with LXFL 529 NSCLC and with M19-MEL melanoma was over 100 µM throughout. The same compound registered a TGI in the experiment with KM20L2 colon of over 100 µM.
Consider `COc1cc(/C=C2\C(=O)N(C(=O)c3ccc(NC(C)=O)cc3)N=C2C)ccc1O`, for which the TGI in the experiment with HOP-18 NSCLC, in the experiment on SNB-78 CNS, with DLD-1 colon, in the experiment on DMS 273 small cell lung, in the experiment with M19-MEL melanoma and in the experiment on DMS 114 small cell lung was over 100 µM each time.
As for `Brc1cc2c(cc1C1SCCS1)OCO2`, the TGI in the experiment with HOP-18 NSCLC, in the experiment on SNB-78 CNS, with DLD-1 colon, in the experiment with DMS 273 small cell lung, in the experiment on LXFL 529 NSCLC and with DMS 114 small cell lung was over 100 µM each time. Moreover, the TGI with KM20L2 colon and in the experiment on RXF-631 renal was over 100 µM in each case.
With `COc1c(C)cc2c(c1O)C1NC(C2)[C@H](O)N2C3COC(=O)[C@@]4(CS[C@@H](c5c(OC(C)=O)c(C)c6c(c53)OCO6)C12)NCCC1=C4NC2C=CC=CC12` (stereo not given in full), the TGI with DLD-1 colon is 0.0498 µM; in the experiment with DMS 273 small cell lung, under 0.01 µM; in the experiment with LXFL 529 NSCLC, 0.0117 µM; in the experiment on M19-MEL melanoma, under 0.01 µM; with DMS 114 small cell lung, under 0.01 µM; in the experiment with KM20L2 colon, under 0.01 µM. This compound also showed a TGI in the experiment with RXF-631 renal of 0.167 µM.
As for `COc1ccccc1/C=C1\CCC(CCN2CCOCC2)C1=O` (stereo not given), the TGI in the experiment on HOP-18 NSCLC, in the experiment with SNB-78 CNS, in the experiment with DLD-1 colon, with DMS 273 small cell lung, with LXFL 529 NSCLC and in the experiment on M19-MEL melanoma was over 100 µM each time. Also, the TGI in the experiment on DMS 114 small cell lung, in the experiment on KM20L2 colon and with RXF-631 renal was over 100 µM in each case.
As for `COc1cc(/C=C\c2cccnc2)cc(OC)c1OC`, the TGI with HOP-18 NSCLC, with SNB-78 CNS, with DLD-1 colon, in the experiment on DMS 273 small cell lung, in the experiment with LXFL 529 NSCLC and in the experiment on M19-MEL melanoma was over 100 µM throughout. For the same compound, the TGI in the experiment on DMS 114 small cell lung and in the experiment on KM20L2 colon was over 100 µM in each case.
For the compound `Cc1nc2ccccc2c(=O)n1NC(=S)Nc1ccc(Cl)cc1[N+](=O)[O-]`, the TGI in the experiment on LXFL 529 NSCLC, in the experiment with M19-MEL melanoma, in the experiment with DMS 114 small cell lung and with KM20L2 colon was over 100 µM each time.
`CN(Cc1ccccc1)C(=NC#N)N(C)Cc1ccccc1`: the TGI with SNB-78 CNS, in the experiment on DLD-1 colon, with DMS 273 small cell lung, in the experiment with LXFL 529 NSCLC, with M19-MEL melanoma and in the experiment on KM20L2 colon was over 100 µM in each case.
As for `O=c1[nH]cnc2c1CCCN2`, the TGI with HOP-18 NSCLC, with SNB-78 CNS, with DLD-1 colon, in the experiment with LXFL 529 NSCLC, in the experiment on M19-MEL melanoma and with DMS 114 small cell lung was over 100 µM throughout. Besides, the TGI in the experiment with KM20L2 colon is over 100 µM.
For the compound `CC(C)N1CN(C(C(=O)N[C@@H]2C(=O)N3C2SC(C)(C)C3C(=O)O)c2ccc(O)cc2)CSC1=S` (stereo not given in full), the TGI in the experiment with HOP-18 NSCLC, with SNB-78 CNS, with DLD-1 colon, in the experiment on DMS 273 small cell lung, in the experiment on LXFL 529 NSCLC and with M19-MEL melanoma was over 100 µM each time. In addition, the TGI with DMS 114 small cell lung and in the experiment on KM20L2 colon was over 100 µM each time.

The values are drawn from PubChem BioAssay (NCI).
